Test systems include HOP-62 NSCLC; SNB-75 CNS; RPMI-8226 leukemia; HOP-92 NSCLC; COLO 205 colon; HCC-2998 colon; RXF 393 renal; CCRF-CEM leukemia; HCT-15 colon; SN12C renal; UACC-257 melanoma; EKVX NSCLC; NCI-H460 lung; M14 melanoma; K-562 leukemia; SR leukemia; SNB-19 CNS; TK-10 renal.
Common to all, as to test: inhibition of tumour cell growth, NCI panel, 48 h

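The compound was tested at five concentrations on cells cultured in 96-well plates, with a 48-hour exposure period. GI50 = concentration required for 50% inhibition of growth. TGI denotes the concentration required for complete inhibition of growth.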

Take `COc1cccc(/C=N/[N-]C(N)=O)c1[O-].[Ni+2].[OH3+].c1ccc(-c2ccccn2)nc1`: the TGI was greater than 100 µM with HOP-62 NSCLC; greater than 100 µM in the assay with SNB-75 CNS; greater than 100 µM in the assay on RPMI-8226 leukemia; 98.1 µM in the assay with HOP-92 NSCLC; greater than 100 µM in the assay on COLO 205 colon; greater than 100 µM with HCC-2998 colon. For the same compound, the TGI with RXF 393 renal, in the assay on CCRF-CEM leukemia, in the assay on HCT-15 colon, in the assay with SN12C renal, with UACC-257 melanoma and in the assay with EKVX NSCLC was greater than 100 µM throughout. The TGI with NCI-H460 lung, with M14 melanoma and in the assay on K-562 leukemia was greater than 100 µM each time.
Consider `O=C(N/N=C/c1cc(Cl)cc(Cl)c1[O-])c1ccccc1O.O=C(N/N=C/c1cc(Cl)cc(Cl)c1[O-])c1ccccc1O.[Zn+2]`, for which the TGI with SR leukemia stood at 1550 nM; with SNB-75 CNS it was 16.4 µM; in the assay with SNB-19 CNS it was 15 µM; in the assay on HOP-92 NSCLC it was 4.98 µM; in the assay on HCC-2998 colon, 13.2 µM; in the assay on RXF 393 renal, 11.6 µM. For the same compound, the TGI with HCT-15 colon came out at 15.6 µM; in the assay on UACC-257 melanoma, 11.8 µM; with EKVX NSCLC, 9.88 µM; in the assay with M14 melanoma it was 6.88 µM; in the assay with TK-10 renal it was 18.5 µM; in the assay on K-562 leukemia, 33.4 µM. Besides, the GI50 was 363 nM in the assay on HOP-92 NSCLC and 680 nM with EKVX NSCLC.
On to `OC1CCOc2ccccc21` (centres undefined), for which the TGI with SR leukemia is greater than 100000 nM; in the assay with HOP-62 NSCLC, greater than 100 µM; with RPMI-8226 leukemia, greater than 100 µM; in the assay with SNB-19 CNS, greater than 100 µM; in the assay on COLO 205 colon, greater than 100 µM; in the assay with HCC-2998 colon, greater than 100 µM. In addition, the TGI in the assay with RXF 393 renal, with CCRF-CEM leukemia, in the assay with HCT-15 colon, in the assay with SN12C renal, in the assay on EKVX NSCLC and in the assay with NCI-H460 lung was greater than 100 µM throughout. In addition, the TGI in the assay with M14 melanoma, in the assay on TK-10 renal and in the assay on K-562 leukemia was greater than 100 µM in each case.

For the origin of these results see PubChem BioAssay (NCI).
